Source: patent US7985731B2, “Sugar chain added GLP-1 peptide” (Otsuka Chemical Holdings Co., Ltd., priority 2007, dated 2011)
Peptide text beside a SMILES is read from it. * marks the point of attachment. X1 = CC(=O)N[C@@H]1[C@@H](O)[C@H](O[C@@H]2O[C@H](CO)[C@@H](O[C@@H]3O[C@H](CO[C@H]4O[C@H](CO)[C@@H](O)[C@H](O)[C@@H]4O[C@@H]4O[C@H](CO)[C@@H](O[C@@H]5O[C@H](CO[C@]6(C(=O)O)C[C@H](O)[C@@H](NC(C)=O)[C@H]([C@H](O)[C@H](O)CO)O6)[C@H](O)[C@H](O)[C@H]5O)[C@H](O)[C@H]4NC(C)=O)[C@@H](O)[C@H](O[C@H]4O[C@H](CO)[C@@H](O)[C@H](O)[C@@H]4O[C@@H]4O[C@H](CO)[C@@H](O[C@@H]5O[C@H](CO[C@]6(C(=O)O)C[C@H](O)[C@@H](NC(C)=O)[C@H]([C@H](O)[C@H](O)CO)O6)[C@H](O)[C@H](O)[C@H]5O)[C@H](O)[C@H]4NC(C)=O)[C@@H]3O)[C@H](O)[C@H]2NC(C)=O)[C@@H](CO)O[C@H]1NC(=O)C*

Key:
[1] = target: T1, mouse GLP-1 receptor (Mus musculus, UniProt O35659); assay: Test Example 6: ability to synthesize cAMP in mouse GLP-1 receptor-expressing CHO-K1 cells; assay type: cell-based
T1 construct: expressed in transfected cells
T1 sequence (O35659 22-463): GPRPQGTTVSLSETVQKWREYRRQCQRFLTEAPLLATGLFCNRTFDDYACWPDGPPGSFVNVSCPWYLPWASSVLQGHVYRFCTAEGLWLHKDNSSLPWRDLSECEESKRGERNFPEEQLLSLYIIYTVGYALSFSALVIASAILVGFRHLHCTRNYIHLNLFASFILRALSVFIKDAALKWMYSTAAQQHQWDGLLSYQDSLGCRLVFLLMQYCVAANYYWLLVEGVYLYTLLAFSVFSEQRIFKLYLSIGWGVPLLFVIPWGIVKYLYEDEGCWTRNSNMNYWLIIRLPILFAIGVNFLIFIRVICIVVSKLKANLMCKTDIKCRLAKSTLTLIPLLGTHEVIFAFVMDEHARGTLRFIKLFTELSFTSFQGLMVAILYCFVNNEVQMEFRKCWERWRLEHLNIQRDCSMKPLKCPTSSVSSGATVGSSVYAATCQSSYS
Experimental: 1. Construction of Mouse GLP-1 Receptor-Expressing Vector
A mouse GLP1 receptor sense primer (5′-[…]-3′) (SEQ ID NO: 152) and a mouse GLP-1 receptor antisense primer (5′-[…]-3′) (SEQ ID NO: 153) capable of binding to the 5′ and 3′ ends of mouse GLP-1 receptor cDNA were separately synthesized. PCR was performed using Ex Taq polymerase (TaKaRa) with cDNA (Clone ID: 40046534, Open Biosystems) as a template. Specifically, 50 μL in total of reaction solution consisting of 1 μL of template cDNA (10 ng/μL), 4 μL of 2.5 mM dNTPs, 1 μL of primer solution mixtures (each 50 μM), 5 μL of ×10 Ex Taq polymerase Buffer, 0.25 μL of Ex Taq polymerase and 38.75 μL of sterilized water was used and allowed to react by 94° C. for 1 minute; 94° C. for 45 seconds, 55° C. for 1 minute and 72° C. for 2 minutes (35 cycles); and 72° C. for 10 minutes. The PCR reaction product was electrophoresed on 1% agarose gel, and the cDNA fragment was purified using Wizard SV Gel and PCR Clean-up System (Promega) and treated with restriction enzymes (EcoRI and NheI) to obtain mouse GLP-1 receptor cDNA.
To efficiently obtain cells highly expressing a mouse GLP-1 receptor, a pIRES-gfp vector was used as an expression vector. This vector was prepared by inserting, to a vector pEGFP-N1 (Clontech), an IRES gene-containing DNA fragment obtained by the restriction enzyme treatment (Sal I and BamHI) of pIRESpuro2 (Clontech).
The mouse GLP-1 receptor cDNA fragment was inserted to pIRES-gfp to thereby obtain a mouse GLP-1 receptor-expressing vector mGLP-1R/pIRES-gfp. The DNA sequence of the obtained vector was confirmed using ABI3100-Avant (Applied Biosystems).
2. Preparation of Mouse GLP-1 Receptor-Expressing CHO-K1 Cells
CHO-K1 cells (ATCC catalog No. CCL-61) were transfected with the obtained mGLP-1R/pIRES-gfp using FuGENE (registered trademark) (Roche) according to the instruction manual. The transfected CHO-K1 cells were cultured in RPMI1640 medium (Wako Pure Chemical Industries) containing 10% FCS (Hyclone) and penicillin-streptomycin (SIGMA). Drug selection was conducted by the addition of 1.0 mg/ml G418 (Wako Pure Chemical Industries). The drug resistance cells were sorted with a cell sorter (EPICS ALTRA, Beckman Coulter) using a GFP expression level as an index. After the sorting, the limiting dilution method was conducted to obtain cells highly expressing GFP, namely, cells highly expressing a mouse GLP-1 receptor. The obtained cells were used as mouse GLP-1 receptor-expressing CHO-K1 cells in the experiment shown below.
3. Analysis of Agonist Effect of Oligosaccharide Chain Added GLP-1 Peptide (Ability to Synthesize cAMP)
The mouse GLP-1 receptor-expressing CHO-K1 cells prepared in the preceding paragraph 2 were used to evaluate the agonist effect of the oligosaccharide chain added GLP-1 peptide using the ability to synthesize cAMP as an index.
The mouse GLP-1 receptor-expressing CHO-K1 cells were suspended at a concentration of 5×10^5 cells/ml in RPMI1640 medium containing 10% FCS. The cell suspension was seeded at a concentration of 100 μL per well to a flat-bottomed 96-well plate (Falcon) and cultured at 5% CO2 at 37° C. for 16 hours. The culture supernatant was discarded. The oligosaccharide chain added GLP-1 peptide dissolved in Krebs Ringer bicarbonate Buffer containing 2.5 mM glucose was added at a concentration of 100 μL/well and cultured at 37° C. for 30 minutes. The culture supernatant was immediately discarded. The amount of cAMP synthesized in the mouse GLP-1 receptor-expressing CHO-K1 cells was measured using cAMP ELISA Kit (GE Healthcare or Cayman) and used as an index for the agonist effect of the oligosaccharide chain added GLP-1 peptide on mouse GLP-1 receptors.
GLP-1 increases intracellular cAMP concentrations through the binding to its receptor and promotes insulin secretion. Thus, the activity of the oligosaccharide chain added GLP-1 peptide was evaluated using the ability to synthesize cAMP as an index. […]

[2] = tested on: C57BL/6JJcl mice; assay: Test Example 7: Oral Glucose Tolerance Test (OGTT); assay type: in vivo; conditions: 9 nmol/kg intraperitoneal 30 minutes before glucose 1 mg/g oral
Experimental: After 30 minutes, a glucose solution was orally administered at a dose of 1 mg/g. Blood was collected from the orbits before the glucose administration and 30 minutes, 60 minutes and 120 minutes after the glucose administration. Blood-sugar levels were measured using ACCU-CHEK Aviva (Roche Diagnostics).
After the oral administration of the glucose solution to the mice fasted overnight, blood was collected over time, and blood-sugar levels were measured.
The correlation between the oligosaccharide chain structure and the activity was studied in mouse OGTT.

Compound | cAMP synthesis activity compared with GLP-1 (in words) [1] | effect of suppressing rise in blood-sugar levels in OGTT [2]
CC[C@H](C)[C@H](NC(=O)[C@H](Cc1ccccc1)NC(=O)[C@H](CCC(=O)O)NC(=O)[C@H](CCCCN)NC(=O)[C@H](C)NC(=O)[C@H](C)NC(=O)[C@H](CCC(N)=O)NC(=O)[C@H](CSCC(=O)N[C@@H]1O[C@H](CO)[C@@H](O[C@@H]2O[C@H](CO)[C@@H](O[C@@H]3O[C@H](CO[C@H]4O[C@H](CO)[C@@H](O)[C@H](O)[C@@H]4O[C@@H]4O[C@H](CO)[C@@H](O[C@@H]5O[C@H](CO[C@]6(C(=O)O)C[C@H](O)[C@@H](NC(C)=O)[C@H]([C@H](O)[C@H](O)CO)O6)[C@H](O)[C@H](O)[C@H]5O)[C@H](O)[C@H]4NC(C)=O)[C@@H](O)[C@H](O[C@H]4O[C@H](CO)[C@@H](O)[C@H](O)[C@@H]4O[C@@H]4O[C@H](CO)[C@@H](O[C@@H]5O[C@H](CO[C@]6(C(=O)O)C[C@H](O)[C@@H](NC(C)=O)[C@H]([C@H](O)[C@H](O)CO)O6)[C@H](O)[C@H](O)[C@H]5O)[C@H](O)[C@H]4NC(C)=O)[C@@H]3O)[C@H](O)[C@H]2NC(C)=O)[C@H](O)[C@H]1NC(C)=O)NC(=O)[C@H](CCC(=O)O)NC(=O)[C@H](CC(C)C)NC(=O)[C@H](Cc1ccc(O)cc1)NC(=O)[C@H](CO)NC(=O)[C@H](CO)NC(=O)[C@@H](NC(=O)[C@H](CC(=O)O)NC(=O)[C@H](CO)NC(=O)[C@@H](NC(=O)[C@H](Cc1ccccc1)NC(=O)[C@@H](NC(=O)CNC(=O)[C@H](CCC(=O)O)NC(=O)[C@H](C)NC(=O)[C@@H](N)Cc1c[nH]cn1)[C@@H](C)O)[C@@H](C)O)C(C)C)C(=O)N[C@@H](C)C(=O)N[C@@H](Cc1c[nH]c2ccccc12)C(=O)N[C@@H](CC(C)C)C(=O)N[C@H](C(=O)N[C@@H](CCCCN)C(=O)NCC(=O)N[C@@H](CCCNC(=N)N)C(=O)NCC(=O)O)C(C)C [Example 2, 22Cys GLP-1-disialo] (H-HAEGTFTSDVSSYLEC(X1)QAAKEFIAWLVKGRG-OH) | activity equal to or more than that of the GLP-1 | strong effect of suppressing rise in blood-sugar levels
CC[C@H](C)[C@H](NC(=O)[C@H](Cc1ccccc1)NC(=O)[C@H](CCC(=O)O)NC(=O)[C@H](CCCCN)NC(=O)[C@H](C)NC(=O)[C@H](C)NC(=O)[C@H](CCC(N)=O)NC(=O)CNC(=O)[C@H](CCC(=O)O)NC(=O)[C@H](CC(C)C)NC(=O)[C@H](Cc1ccc(O)cc1)NC(=O)[C@H](CO)NC(=O)[C@H](CO)NC(=O)[C@@H](NC(=O)[C@H](CC(=O)O)NC(=O)[C@H](CO)NC(=O)[C@@H](NC(=O)[C@H](Cc1ccccc1)NC(=O)[C@@H](NC(=O)CNC(=O)[C@H](CCC(=O)O)NC(=O)[C@H](C)NC(=O)[C@@H](N)Cc1c[nH]cn1)[C@@H](C)O)[C@@H](C)O)C(C)C)C(=O)N[C@@H](C)C(=O)N[C@@H](Cc1c[nH]c2ccccc12)C(=O)N[C@@H](CC(C)C)C(=O)N[C@H](C(=O)N[C@@H](CCCCN)C(=O)NCC(=O)N[C@@H](CCCNC(=N)N)C(=O)NCC(=O)N[C@@H](CSCC(=O)N[C@@H]1O[C@H](CO)[C@@H](O[C@@H]2O[C@H](CO)[C@@H](O[C@@H]3O[C@H](CO[C@H]4O[C@H](CO)[C@@H](O)[C@H](O)[C@@H]4O[C@@H]4O[C@H](CO)[C@@H](O[C@@H]5O[C@H](CO[C@]6(C(=O)O)C[C@H](O)[C@@H](NC(C)=O)[C@H]([C@H](O)[C@H](O)CO)O6)[C@H](O)[C@H](O)[C@H]5O)[C@H](O)[C@H]4NC(C)=O)[C@@H](O)[C@H](O[C@H]4O[C@H](CO)[C@@H](O)[C@H](O)[C@@H]4O[C@@H]4O[C@H](CO)[C@@H](O[C@@H]5O[C@H](CO[C@]6(C(=O)O)C[C@H](O)[C@@H](NC(C)=O)[C@H]([C@H](O)[C@H](O)CO)O6)[C@H](O)[C@H](O)[C@H]5O)[C@H](O)[C@H]4NC(C)=O)[C@@H]3O)[C@H](O)[C@H]2NC(C)=O)[C@H](O)[C@H]1NC(C)=O)C(=O)O)C(C)C [Example 5, 38Cys GLP-1-disialo] | activity equal to or more than that of the GLP-1 | strong effect of suppressing rise in blood-sugar levels
CC[C@H](C)[C@H](NC(=O)[C@H](Cc1ccccc1)NC(=O)[C@H](CCC(=O)O)NC(=O)[C@H](CSCC(=O)N[C@@H]1O[C@H](CO)[C@@H](O[C@@H]2O[C@H](CO)[C@@H](O[C@@H]3O[C@H](CO[C@H]4O[C@H](CO)[C@@H](O)[C@H](O)[C@@H]4O[C@@H]4O[C@H](CO)[C@@H](O[C@@H]5O[C@H](CO)[C@H](O)[C@H](O)[C@H]5O)[C@H](O)[C@H]4NC(C)=O)[C@@H](O)[C@H](O[C@H]4O[C@H](CO)[C@@H](O)[C@H](O)[C@@H]4O[C@@H]4O[C@H](CO)[C@@H](O[C@@H]5O[C@H](CO)[C@H](O)[C@H](O)[C@H]5O)[C@H](O)[C@H]4NC(C)=O)[C@@H]3O)[C@H](O)[C@H]2NC(C)=O)[C@H](O)[C@H]1NC(C)=O)NC(=O)[C@H](C)NC(=O)[C@H](C)NC(=O)[C@H](CCC(N)=O)NC(=O)CNC(=O)[C@H](CCC(=O)O)NC(=O)[C@H](CC(C)C)NC(=O)[C@H](Cc1ccc(O)cc1)NC(=O)[C@H](CO)NC(=O)[C@H](CO)NC(=O)[C@@H](NC(=O)[C@H](CC(=O)O)NC(=O)[C@H](CO)NC(=O)[C@@H](NC(=O)[C@H](Cc1ccccc1)NC(=O)[C@@H](NC(=O)CNC(=O)[C@H](CCC(=O)O)NC(=O)[C@H](C)NC(=O)[C@@H](N)Cc1c[nH]cn1)[C@@H](C)O)[C@@H](C)O)C(C)C)C(=O)N[C@@H](C)C(=O)N[C@@H](Cc1c[nH]c2ccccc12)C(=O)N[C@@H](CC(C)C)C(=O)N[C@H](C(=O)N[C@@H](CCCCN)C(=O)NCC(=O)N[C@@H](CCCNC(=N)N)C(=O)NCC(=O)O)C(C)C [Example 25, 26Cys GLP-1-asialo] | activity equal to or more than that of the GLP-1 | strong effect of suppressing rise in blood-sugar levels
